Measured values from paper PMC10894853, “Distribution and elimination kinetics of midazolam and metabolites after post-resuscitation care: a prospective observational study” (Scientific Reports, 2024).

Columns and labels:
[1] = cited from earlier work
[2] = Distribution (proportion of total relative concentration) of midazolam and metabolites in plasma after discontinuation of MDZ infusion; conditions: range over sampling times 0 to 24 h
Protocol: Serum samples for analyzing the plasma concentration of MDZ and its metabolites were obtained immediately (baseline) and at 4, 8, 12, and 24 h after the discontinuation of MDZ infusion.
The distribution of each compound was assessed by calculating its relative concentration as a ratio to the total sum of relative concentrations at each sampling time.

[3] = Non-compartmental pharmacokinetics of midazolam and metabolites in plasma after discontinuation of MDZ infusion (LC-MS/MS); assay type: in vivo, human; conditions: for AUClast / AUCinf: relative concentration; for MRT inf: read-out: MRTinf (mean residence time); for MRT last: read-out: MRTlast (mean residence time)
Protocol: The PK parameters were obtained using a non-compartmental method with Phoenix WinNonlin (version 8.3.5; Certara, USA). […] The AUC from time 0 to infinity (AUCinf) was calculated as AUClast + Clast/λz, where Clast is the last measurable concentration and λz is the elimination rate constant. The mean residence time was calculated as […]. The estimated t1/2 was calculated from λz based on a previously reported equation[12].
All samples were immediately frozen and stored at –70 ℃ after centrifugation with 3,000 rpm for 10 min and then sent to the Nutrition Food Microbiology Laboratory at Chungnam National University (http://nfml.kr/) to determine the concentration of midazolam and its metabolites using liquid chromatography with tandem mass spectrometry analysis.
The sample preparation method was performed as previously described with some modifications. A 20 µL of sample was mixed with 180 µL of 80% methanol, followed by protein precipitation at 4 °C for 30 min. Subsequently, the supernatant was harvested and added to 1800 µL of distilled water. The pre-treated samples were loaded onto an Oasis HLB Vac RC cartridge (30 mg, 20 cc, Waters) that had been preconditioned with 6 mL of methanol and 6 mL of distilled water. The cartridge was washed with 6 mL distilled water and sequentially eluted with methanol (4 mL). The eluted samples were dried using an evaporator and resuspended with 0.2 mL of methanol for analysis.

[4] = Awakening time and estimated midazolam concentration at awakening (simple linear regression); assay type: in vivo, human
Protocol: The primary outcome of this study was the distribution and elimination of MDZ and its metabolites over 24 h following the discontinuation of MDZ infusion after targeted temperature management (33 or 36℃). The secondary outcome was the association between the PK parameters and awakening time in a subgroup of patients who experienced neurological recovery.
We investigated the PK parameters for all compounds in each individual. […] Among these four patients, the mean of the estimated MDZ concentration was 16.8 ng/mL.
Figure 4 Simple linear regression analysis between the absolute concentration of midazolam and awakening time in the subgroup of awakened patients after post-resuscitation care (n = 7). […] The regression line (grid line) is followed the regression equation: Y = − 4.506 × X + 105.5.

[5] = after discontinuation of MDZ infusion, mean ± SD
[6] = plasma, 0 to 24 h after discontinuation of MDZ infusion, arithmetic mean ± SD
[7] = plasma, time 0 to infinity after discontinuation of MDZ infusion, mean ± SD
[8] = human, plasma, intravenous, after discontinuation of MDZ infusion, mean ± SD

Row | Compound | MRTinf (mean residence time) [3, 5] [h] | MRTlast (mean residence time) [3, 5] [h] | t1/2 (elimination half-life) [3, 5] [h] | AUClast [3, 6] | AUCinf [3, 7] | other results
1 | OCc1ncc2n1-c1ccc(Cl)cc1C(c1ccccc1F)=NC2 [1-OH-MDZ, 1-hydroxymidazolam] | 10.5 ± 5.2 | 6.0 ± 2.3 | 8.1 ± 4.9 | 1117.2 ± 1643.5 h*ppm | 1419.1 ± 1845.5 h*ppm | Potency for sedation effect [1]: 60–63%; Proportion in total concentration [2]: 3.3–4.2%
2 | O=C(O)[C@H]1O[C@@H](OCc2ncc3n2-c2ccc(Cl)cc2C(c2ccccc2F)=NC3)[C@H](O)[C@@H](O)[C@@H]1O [1-OH-MDZ-Glu, 1-hydroxymidazolam glucuronide] | 21.8 ± 26.8 | 6.8 ± 2.4 | 15.4 ± 19.9 | 9193.0 ± 13,958.4 h*ppm | 14,027.8 ± 15,486.2 h*ppm | Pharmacological potency (sedation) [1]: < 6%; Potency for sedation [1]: 6–10%
3 | Cc1ncc2n1-c1ccc(Cl)cc1C(c1ccccc1F)=NC2O (stereo not drawn) [4-OH-MDZ, 4-hydroxymidazolam] |  |  |  | 172.5 ± 268.0 h*ppm | 204.7 ± 294.8 h*ppm | Potency for sedation [1]: 0–2%; MRT inf [3, 8]: 10 ± 4.8 h; MRT last [3, 8]: 5.6 ± 1.5 h; half-life ([3]; human, plasma, intravenous, after discontinuation of MDZ infusion, mean ± SD, read-out: t1/2 (elimination half-life) (converted)): 7.3 ± 3.8 h
4 | Cc1ncc2n1-c1ccc(Cl)cc1C(c1ccccc1F)=NC2O[C@@H]1O[C@H](C(=O)O)[C@@H](O)[C@H](O)[C@H]1O (stereo partly drawn) [4-OH-MDZ-Glu, 4-hydroxymidazolam glucuronide] | 7.9 ± 1.4 | 6.4 ± 2.2 | 5.4 ± 0.7 | 29.8 ± 24.4 h*ppm | 33.3 ± 34.3 h*ppm | 
5 | Cc1ncc2n1-c1ccc(Cl)cc1C(c1ccccc1F)=NC2 [MDZ, midazolam] |  |  | 6.2 ± 3.9 |  |  | concentration at 16.6 h ([4]; human, plasma, intravenous, 0.15 mg/kg/h, from regression equation Y = − 4.506 × X + 105.5 at 16.6 h, awakened patients n = 7, read-out: Estimated concentration of midazolam at the subgroup awakening time): 30.7 ng/mL; Mean of the estimated MDZ concentration at awakening time ([4]; individual regression analysis, four out of seven awakened patients): 16.8 ng/mL; Awakening time in the subgroup after discontinuation of the midazolam infusion ([4]; subgroup of awakened patients n = 7): 16.6 h; Awaken time after discontinuation of midazolam intravenous infusion ([4]; subject #1): 9.6 h; Estimated midazolam concentration at awaken time ([4]; subject #1): 32.3 ng/mL; Awaken time after discontinuation of midazolam intravenous infusion ([4]; subject #2): 10.4 h; Estimated midazolam concentration at awaken time ([4]; subject #2): 20.8 ng/mL; Awaken time after discontinuation of midazolam intravenous infusion ([4]; subject #3): 9.6 h; Estimated midazolam concentration at awaken time ([4]; subject #3): 2.2 ng/mL; Awaken time after discontinuation of midazolam intravenous infusion ([4]; subject #4): 7.1 h; Estimated midazolam concentration at awaken time ([4]; subject #4): 11.9 ng/mL; Proportion in total concentration [2]: 21.2–38.4%; AUC(0-t) ([3]; human, intravenous, plasma, 0 to 24 h after discontinuation of MDZ infusion, absolute concentration, arithmetic mean ± SD): 1770 ± 2740 ng·h/mL; AUC(0-inf) ([3]; human, intravenous, plasma, time 0 to infinity after discontinuation of MDZ infusion, absolute concentration, mean ± SD): 2110 ± 3050 ng·h/mL; MRT inf [3, 8]: 8.2 ± 5.2 h; MRT last [3, 8]: 4.9 ± 1.6 h
6 | di-hydroxymidazolam glucuronide [Di-OH-MDZ-Glu] | 19.2 ± 13.0 | 6.4 ± 2.1 | 14.3 ± 9.6 | 187.4 ± 272.0 h*ppm | 200.2 ± 307.1 h*ppm | 
7 | dihydroxymidazolam [Di-OH-MDZ] | 21.0 ± 19.8 | 6.4 ± 2.5 | 14.5 ± 13.7 | 38.2 ± 49.8 h*ppm | 56.2 ± 52.1 h*ppm | 
8 | midazolam glucuronide [MDZ-Glu] | 16.2 ± 24.1 | 5.8 ± 1.9 |  |  |  | 
